{"source": "patent US7982047B2", "about": "“Derivatives of 1,3-diones having a herbicidal activity” (Isagro Ricerca S.r.l., priority 2003, dated 2011)", "key": {"Stellaria media [1]": {"system": "Stellaria media", "assay": "Post-emergence herbicidal activity", "format": "in vivo", "settings": "500 g/ha, evaluated fifteen days after the treatment, damage vs blank", "protocol": "(§1) Determination of the Herbicidal Activity and Phyto-Toxicity in Post-emergence The herbicidal activity of the compounds of the invention in post-emergence was evaluated according to the following operative procedures. The plant species of interest (weeds or crops) were sown in pots with an upper diameter of 10 cm, a height of 10 cm and containing sandy soil. 10 pots were used for each plant species. Water was added to each pot in such a quantity as to germinate the seeds. The pots were divided into two groups, each containing 5 pots for each weed or crop. Fifteen days after sowing (ten, in the case of wheat), when the weeds and crops, according to the species, were 10-15 cm high, the first set of pots was treated with a hydro-acetonic dispersion containing acetone at 10% in volume, the product under evaluation at the desired concentration and Tween 20 at 0.5%. The second set was treated with a hydro-acetonic solution only, containing acetone at 10% in volume and Tween 20 at 0.5%, and was used as comparison (blank). All pots were kept under observation in a conditioned environment under the following conditions: • temperature: 24° C.; • relative humidity: 60%; • photo-period: 16 hours; • light intensity: 10000 lux. The pots were uniformly watered every other day so as to ensure a humidity degree sufficient for a good development of the plants. The herbicidal activity was evaluated fifteen days after the treatment, on the basis of the following values which refer to the percentage of damage tested on the treated plants with respect to the non-treated plants (blank): [table]"}, "Solanum nigrum [2]": {"system": "Solanum nigrum", "assay": "Post-emergence herbicidal activity", "format": "in vivo", "settings": "500 g/ha, evaluated fifteen days after the treatment, damage vs blank", "protocol": "as §1"}, "Portulaca oleracea [3]": {"system": "Portulaca oleracea", "assay": "Post-emergence herbicidal activity", "format": "in vivo", "settings": "500 g/ha, evaluated fifteen days after the treatment, damage vs blank", "protocol": "as §1"}, "Abutilon theofrasti [4]": {"system": "Abutilon theofrasti", "assay": "Post-emergence herbicidal activity", "format": "in vivo", "settings": "500 g/ha, evaluated fifteen days after the treatment, damage vs blank", "protocol": "as §1"}, "Galium aparine [5]": {"system": "Galium aparine", "assay": "Post-emergence herbicidal activity", "format": "in vivo", "settings": "500 g/ha, evaluated fifteen days after the treatment, damage vs blank", "protocol": "as §1"}, "Chenopodium album [6]": {"system": "Chenopodium album", "assay": "Post-emergence herbicidal activity", "format": "in vivo", "settings": "500 g/ha, evaluated fifteen days after the treatment, damage vs blank", "protocol": "as §1"}, "Stellaria media [7]": {"system": "Stellaria media", "assay": "Pre-emergence herbicidal activity", "format": "in vivo", "settings": "500 g/ha, evaluated fifteen days after the treatment, damage vs blank", "protocol": "(§2) Determination of the Herbicidal Activity and Phyto-Toxicity in Pre-Emergence The herbicidal activity of the compounds of the invention in pre-emergence was evaluated according to the following operative procedures. The plant species of interest (weeds or crops) were sown in pots with an upper diameter of 10 cm, a height of 10 cm and containing sandy soil. 10 pots were used for each plant species. Water was added to each pot in such a quantity as to germinate the seeds. The pots were divided into two groups, each containing 5 pots for each weed or crop. After one day from the sowing, the first set of pots was treated with a hydro-acetonic dispersion containing acetone at 10% in volume, the product under evaluation at the desired concentration and Tween 20 at 0.5%. The second set was treated with a hydro-acetonic solution only, containing acetone at 10% in volume and Tween 20 at 0.5%, and was used as comparison (blank). All pots were kept under observation in a conditioned environment under the following conditions: • temperature: 24° C.; • relative humidity: 60%; • photoperiod: 16 hours; • light intensity: 10000 lux. The pots were uniformly watered in order to ensure a sufficient humidity degree for a good development of the plants. Fifteen days after the treatment, the herbicidal activity was evaluated on the basis of the following values, which refer to the damage percentage tested on the treated plants, with respect to the non-treated plants (blank): [table]"}, "Solanum nigrum [8]": {"system": "Solanum nigrum", "assay": "Pre-emergence herbicidal activity", "format": "in vivo", "settings": "500 g/ha, evaluated fifteen days after the treatment, damage vs blank", "protocol": "as §2"}, "Ipomea purpurea": {"system": "Ipomea purpurea", "assay": "Pre-emergence herbicidal activity", "format": "in vivo", "settings": "500 g/ha, evaluated fifteen days after the treatment, damage vs blank", "protocol": "as §2"}, "Portulaca oleracea [9]": {"system": "Portulaca oleracea", "assay": "Pre-emergence herbicidal activity", "format": "in vivo", "settings": "500 g/ha, evaluated fifteen days after the treatment, damage vs blank", "protocol": "as §2"}, "Amaranthus retroflexus": {"system": "Amaranthus retroflexus", "assay": "Pre-emergence herbicidal activity", "format": "in vivo", "settings": "500 g/ha, evaluated fifteen days after the treatment, damage vs blank", "protocol": "as §2"}, "Abutilon theofrasti [10]": {"system": "Abutilon theofrasti", "assay": "Pre-emergence herbicidal activity", "format": "in vivo", "settings": "500 g/ha, evaluated fifteen days after the treatment, damage vs blank", "protocol": "as §2"}, "Galium aparine [11]": {"system": "Galium aparine", "assay": "Pre-emergence herbicidal activity", "format": "in vivo", "settings": "500 g/ha, evaluated fifteen days after the treatment, damage vs blank", "protocol": "as §2"}, "Chenopodium album [12]": {"system": "Chenopodium album", "assay": "Pre-emergence herbicidal activity", "format": "in vivo", "settings": "500 g/ha, evaluated fifteen days after the treatment, damage vs blank", "protocol": "as §2"}}}
{"smiles": "Cn1nnc(C(C(=O)c2ccc(S(C)(=O)=O)cc2Cl)C(=O)C2CC2)n1", "note": "(stereo not shown) [Compound N^o 6, 1-[2-chloro-4-(methylsulphonyl)phenyl]-3-cyclopropyl-2-(2-methyl-2H-tetrazol-5-yl)propane-1,3-dione]", "values": [{"measurement": "Post-emergence herbicidal activity SM", "setting": "Stellaria media [1]", "result": "5 (91% damage - death of the plant.)"}, {"measurement": "Post-emergence herbicidal activity SN", "setting": "Solanum nigrum [2]", "result": "5 (91% damage - death of the plant.)"}, {"measurement": "Post-emergence herbicidal activity PO", "setting": "Portulaca oleracea [3]", "result": "5 (91% damage - death of the plant.)"}, {"measurement": "Post-emergence herbicidal activity AT", "setting": "Abutilon theofrasti [4]", "result": "5 (91% damage - death of the plant.)"}, {"measurement": "Post-emergence herbicidal activity GA", "setting": "Galium aparine [5]", "result": "5 (91% damage - death of the plant.)"}, {"measurement": "Post-emergence herbicidal activity CA", "setting": "Chenopodium album [6]", "result": "5 (91% damage - death of the plant.)"}, {"measurement": "Pre-emergence herbicidal activity SM", "setting": "Stellaria media [7]", "result": "5 (91% damage - death of the plant.)"}, {"measurement": "Pre-emergence herbicidal activity SN", "setting": "Solanum nigrum [8]", "result": "5 (91% damage - death of the plant.)"}, {"measurement": "Pre-emergence herbicidal activity IP", "setting": "Ipomea purpurea", "result": "5 (91% damage - death of the plant.)"}, {"measurement": "Pre-emergence herbicidal activity PO", "setting": "Portulaca oleracea [9]", "result": "5 (91% damage - death of the plant.)"}, {"measurement": "Pre-emergence herbicidal activity AR", "setting": "Amaranthus retroflexus", "result": "5 (91% damage - death of the plant.)"}, {"measurement": "Pre-emergence herbicidal activity AT", "setting": "Abutilon theofrasti [10]", "result": "5 (91% damage - death of the plant.)"}, {"measurement": "Pre-emergence herbicidal activity GA", "setting": "Galium aparine [11]", "result": "5 (91% damage - death of the plant.)"}, {"measurement": "Pre-emergence herbicidal activity CA", "setting": "Chenopodium album [12]", "result": "5 (91% damage - death of the plant.)"}]}
{"smiles": "Cc1noc(C(C(=O)c2ccc(S(C)(=O)=O)cc2Cl)C(=O)C2CC2)n1", "note": "(stereo not shown) [Compound N^o 11, 1-[2-chloro-4-(methylsulphonyl)phenyl]-3-cyclopropyl-2-(3-methyl-1,2,4-oxadiazol-5-yl)propane-1,3-dione]", "values": [{"measurement": "Post-emergence herbicidal activity SN", "setting": "Solanum nigrum [2]", "result": "5 (91% damage - death of the plant.)"}, {"measurement": "Post-emergence herbicidal activity AT", "setting": "Abutilon theofrasti [4]", "result": "5 (91% damage - death of the plant.)"}, {"measurement": "Post-emergence herbicidal activity CA", "setting": "Chenopodium album [6]", "result": "5 (91% damage - death of the plant.)"}, {"measurement": "Pre-emergence herbicidal activity IP", "setting": "Ipomea purpurea", "result": "5 (91% damage - death of the plant.)"}, {"measurement": "Pre-emergence herbicidal activity PO", "setting": "Portulaca oleracea [9]", "result": "5 (91% damage - death of the plant.)"}, {"measurement": "Pre-emergence herbicidal activity AT", "setting": "Abutilon theofrasti [10]", "result": "5 (91% damage - death of the plant.)"}, {"measurement": "Pre-emergence herbicidal activity CA", "setting": "Chenopodium album [12]", "result": "5 (91% damage - death of the plant.)"}]}
{"smiles": "CS(=O)(=O)c1ccc(C(=O)C(C(=O)C2CC2)c2nnc(C(F)(F)F)s2)c(Cl)c1", "note": "(stereo not shown) [Compound No 2918, 1-[2-chloro-4-(thylsulphonyl)phenyl]-3-cyclopropyl-2-(5-trifluoromethyl-1,3,4-thiadiazol-2-yl)propane-1,3-dione]", "values": [{"measurement": "melting point", "result": 185, "unit": "°C"}]}
{"smiles": "CS(=O)(=O)c1ccc(C(=O)C(C(=O)C(F)(F)F)c2ccccn2)c(Cl)c1", "note": "(stereo not shown) [Compound N-616, 1-[2-chloro-4-(methylsuiphonyl)phenyl]-2-(pyridin-2-yl)-4,4,4-trifluorobutane-1,3-dione]", "values": [{"measurement": "melting point", "result": 189, "unit": "°C"}]}
{"smiles": "CS(=O)(=O)c1ccc(C(=O)C(C(=O)C2CC2)n2cncn2)c(Cl)c1", "note": "(stereo not shown) [Compound No 460, 1-[2-chloro-4-(methylsulphonyl)phenyl]-3-cyclopropyl-2-(1,2,4-triazol-1-yl)propane-1,3-dione]", "values": [{"measurement": "melting point", "result": 162, "unit": "°C"}]}
{"smiles": "CS(=O)(=O)c1ccc(C(=O)C(C(=O)C2CC2)c2ccc([N+](=O)[O-])cc2[N+](=O)[O-])c(Cl)c1", "note": "(stereo not shown)", "values": [{"measurement": "melting point", "result": 67, "unit": "°C"}]}
{"smiles": "Cn1nnnc1C(C(=O)c1ccc(S(C)(=O)=O)cc1Cl)C(=O)C1CC1", "note": "(stereo not shown) [Compound N^o 7, 1-[2-chloro-4-(methylsulphonyl)phenyl]-3-cyclopropyl-2-(1-methyl-1H-tetrazol-5-yl)propane-1,3-dione]", "values": [{"measurement": "Pre-emergence herbicidal activity SM", "setting": "Stellaria media [7]", "result": "5 (91% damage - death of the plant.)"}, {"measurement": "Pre-emergence herbicidal activity SN", "setting": "Solanum nigrum [8]", "result": "5 (91% damage - death of the plant.)"}, {"measurement": "Pre-emergence herbicidal activity PO", "setting": "Portulaca oleracea [9]", "result": "5 (91% damage - death of the plant.)"}, {"measurement": "Pre-emergence herbicidal activity AR", "setting": "Amaranthus retroflexus", "result": "5 (91% damage - death of the plant.)"}, {"measurement": "Pre-emergence herbicidal activity AT", "setting": "Abutilon theofrasti [10]", "result": "5 (91% damage - death of the plant.)"}, {"measurement": "Pre-emergence herbicidal activity CA", "setting": "Chenopodium album [12]", "result": "5 (91% damage - death of the plant.)"}]}
